Laboratory results reported in patent US20150203471A1, “METHODS FOR IMPROVING CHICKEN PRODUCTION” (ELI LILLY AND COMPANY, priority 2012, published 2015).
Counter-ions that a name gives are not always drawn. Like-named read-outs stand apart in the source and are kept apart here.

What was measured:
male broilers [1] = assay: Study 1: growth performance and carcass responses of male broilers, compounds in feed vs positive and negative controls; format: in vivo, chicken; details: 14 days; for change in vivo at 15 ppm, 15 µg/mL: Gallus gallus, feed or water, 336 h
Source text: An objective of this study is to evaluate growth performance and carcass responses of male broilers by comparing non-zero dosages of the above compounds versus a positive control (Compound 1) and negative controls. Table 1 sets out the specific treatment groups:
The route of administration is oral, with the compounds mixed in feed, and provided Ad libitum. The age of the chickens of Day 1 of the study is 35 days old. Body weights are taken on the following days: • 1) Study Day 1 (pen weight) • 2) Study Day 14 (individual animal weights) • 3) Study Day 15 (individual weights on selected animals) • 4) Study Day 16 (blocks 1-5) • 5) Study Day 17 (blocks 6-10).
(§1) Following collection of final weights, the following processing data is collected (hot weights) on individual animals: • 1) Live weight • 2) Hot carcass weight • 3) Fat pad weight • 4) Hot breast muscle weight • 5) Hot bone in leg weight

[2] = test system: Hubbard M99 X Cobb chicks; assay: Study 3: dose response in live performance and carcass yields of commercial broilers raised to a small-size market; format: in vivo, chicken
Protocol: This study is conducted to determine the dose response of the Compound 5 measured in live performance and carcass yields of commercial broilers raised to a small-size market when fed a “typical” feed. 2400 Hubbard M99 X Cobb chicks (1200 male/1200 female) are used in this study. Compound 5 is administered at the following doses: 0, 2, 4, 8, and 16 ppm, orally in feed, beginning when the chicks are 24 days of age and ending when the chicks are 38 days of age. The five different Compound 5 doses are administered in a mash diet formulated to meet all nutrient recommendations using only commercially available ingredients.
Parameters measured in the study include ADG (average daily gain), ADFI (average daily feed intake), GE (gain efficiency), and FE (feed efficiency). The birds are measured for carcass (without giblets), breast muscle (boneless-skinless), and leg-quarter weights. The live body weight on the day of processing is used to calculate the yields for carcass, breast meat, and leg quarters for the birds.

[3] = test system: Ross X Ross 708 male chicks; assay: Study 4: cumulative gas emission from broilers; format: in vivo, chicken; details: 16 ppm in feed, 34 to 48 days of age, compared to untreated birds
Protocol: (§2) This study is conducted to investigate the effects of Compound 5 on live performance and carcass traits of broilers, and to evaluate the emission of various gases from broilers provision of feed with or without Compound 5. Ross X Ross 708 male chicks are used in this study. Compound 5 is administered at the following doses: 0 and 16 ppm, orally in feed, beginning when the chicks are 34 days of age and ending when the chicks are 48 days of age. The Compound 5 doses are administered in a mash diet formulated to meet all nutrient recommendations using only commercially available ingredients.
(§3) Parameters measured in the study include ADG, ADFI, and FCR. The birds are measured for carcass (without giblets), breast muscle (boneless-skinless), leg-quarter, and abdominal fat weights. The live body weight on the day of processing is used to calculate the yields for carcass, breast meat, and leg quarters for the birds. Also measured are emissions of various gases. Cumulative gas emission are monitored and calculated for the following gases: NH3, NO, NO2, H2S, SO2, methane/non-methane total hydrocarbon, O2, and CO2. The efficacy of Compound 5 is determined by the cumulative emission of these gases, as well as by standardizing these cumulative values to their body, carcass, breast meat, and leg-quarter weights.

[4] = Ames assay (mutagenicity); format: cell-based; details: compared with the other compounds tested
Zebrafish = Zebrafish assay (teratogenesis/chromosomal impact); format: in vivo; details: compared with the other compounds tested
male broilers [5] = assay: Study 2: growth performance and carcass responses of male broilers, compounds in feed in the last 14 days prior to slaughter; format: in vivo, chicken
Protocol: Compounds 2, 5, and 9 are used in this study. The study is conducted to evaluate growth performance and carcass responses of male broilers by comparing non-zero dosages of the compounds, versus negative control, administered in the last 14 days prior to slaughter. Table 3 sets out the specific treatment groups.
The route of administration is oral, with the compounds mixed in feed, and provided Ad libitum. The age of the chickens of Day 1 of the study is 35 days old. Body weights are taken on the following days: • 1) Study Day 1 (pen weight) • 2) Study Day 15 (individual animal weights) • 3) Study Day 16 (individual weights on selected animals in animals in blocks 1-4) • 4) Study Day 17 (individual weights on selected animals in animals in blocks 5-8)
as §1

[6] = test system: Ross X Ross 708 male chicks; assay: Study 4: live performance and carcass traits of broilers; format: in vivo, chicken; details: 16 ppm in feed vs 0 ppm, 34 to 48 days of age
Protocol: as §2, §3

[7] = 15 ppm in feed ad libitum, male broilers, percent change from negative control, * in cell = not significant
[8] = 0, 2, 4, 8, 16 ppm in feed, 24 to 38 days of age
[9] = 0, 2, 4, 8, 16 ppm in feed, 24 to 38 days of age, male and female chicks

Q: What does the source list for `CC(C)(Cc1ccc(Oc2ccccn2)cc1)NC[C@H](O)COc1cccc2c1C(C)(C)C(=O)N2` [Compound 5, 4-[{(2S)-3-({1,1-dimethyl-2-[4-(pyridin-2-yloxy)phenyl]ethyl}amino)-2-hydroxypropyl]oxy}-3,3-dimethyl-1,3-dihydro-2H-indol-2-one hydrochloride]?
A: Ave daily live wt gain % inc. (male broilers [1]; [7]): 5.8%; Breast wt % inc. (male broilers [1]; [7]): 6.0%; Feed intake % inc. (male broilers [1]; [7]): 1.1* %; Gain effic % inc. (male broilers [1]; [7]): 4.9%; Leg wt % inc. (male broilers [1]; [7]): 8.1%; Fat Pad wt % dec. (male broilers [1]; 15 ppm in feed ad libitum, male broilers, percent decrease from negative control, * in cell = not significant): 17.4%; fat pad weight (in words) (male broilers [1]; 15 ppm in feed): reduce fat pad weight; feed intake (in words) (male broilers [1]; 15 ppm in feed): significant increase in feed intake; gain versus untreated control (in words) (male broilers [1]; 15 ppm in feed): significantly greater than untreated control; significance of the fat pad weight difference (male broilers [1]; 15 ppm in feed): significant; improvement versus negative control and positive control (in words) (male broilers [1]; 15 ppm in feed, positive control = Compound 1): significantly better improvement than both the negative control and the positive control; change in vivo at 15 ppm, 15 µg/mL (male broilers [1]; 15 ppm in feed ad libitum, male broilers 35 days old at Day 1, percent change from negative control, * in cell = not significant vs negative control, read-out: ADG % inc.): 5.1%; change in vivo at 15 ppm, 15 µg/mL (male broilers [1]; 15 ppm in feed ad libitum, male broilers, percent change from negative control, * in cell = not significant, read-out: Hot carcass wt % inc.): 5.8%; leg-quarter weight [2, 8]: Improvements are observed; leg-quarter yield [2, 8]: Improvements are observed; FE (feed efficiency) [2, 9]: Improvements are observed; GE (gain efficiency) [2, 9]: Improvements are observed; dose response of the improvements (GE, FE, leg-quarter weight and yield) ([2]; doses 2, 4, 8, 16 ppm in feed): doses at above 2 ppm do not show additional benefit; GE and FE by sex ([2]; male versus female broilers, 24 to 38 days of age): positively impacted only in female broilers; reduction in NH3 emission standardized to live weight of the birds or its saleable cuts [3]: more than 30%; reduction of cumulative emission of H2S [3]: 19.0%; reduction of cumulative emission of NH3 [3]: 29.2%; Ames assay result (mutagenicity) [4]: better results; Zebrafish assay result (teratogenesis/chromosomal impact) (Zebrafish): better results; ADG versus negative control group (male broilers [5]; 3.5 ppm in feed): significantly higher; F/G ratio (feed:gain efficiency) versus negative control group (male broilers [5]; 3.5 ppm in feed): significantly lower; G/F ratio (gain:feed efficiency) versus negative control group (male broilers [5]; 3.5 ppm in feed): significantly higher; hot bone-in leg weight versus negative control group (male broilers [5]; 3.5 ppm in feed): significantly higher; hot breast muscle weight versus negative control group (male broilers [5]; 3.5 ppm in feed): significantly higher; hot carcass weight versus negative control group (male broilers [5]; 3.5 ppm in feed): significantly higher; ADG versus negative control group (male broilers [5]; 7 ppm in feed): significantly higher; F/G ratio (feed:gain efficiency) versus negative control group (male broilers [5]; 7 ppm in feed): significantly lower; G/F ratio (gain:feed efficiency) versus negative control group (male broilers [5]; 7 ppm in feed): significantly higher; hot bone-in leg weight versus negative control group (male broilers [5]; 7 ppm in feed): significantly higher; hot breast muscle weight versus negative control group (male broilers [5]; 7 ppm in feed): significantly higher; hot carcass weight versus negative control group (male broilers [5]; 7 ppm in feed): significantly higher; live performance and carcass traits monitored [6]: improvements in all live performance carcass traits monitored, except for ADFI and mortality
